From patent US20150025025A1, “Immuno-modulators for treating functional epithelial syndromes” (priority 2013, published 2015)

Assays:
[1] = tested on: patients having esophageal erosions; assay: Randomized seven day trial in patients with esophageal erosions (Example 19); format: in vivo, human; conditions: for Complete Relief, number of patients / Complete Relief, percent of patients: loss of all symptoms by day 8; for Complete Healing, number of patients / Complete Healing, percent of patients: no erosions by endoscopy at day 8
Excerpt: The trial period was seven days. There were two primary end points, i.e., healing and no healing, and three secondary end points, i.e., no relief, partial relief, and complete relief of pain. Healing was defined as no evidence of erosions by endoscopy at day 8 that were present on day 0. No healing was defined as evidence of erosions remaining on day 8.

right dorsal colitis = assay: Case: equine right dorsal colitis (Example 23); format: in vivo, horse; conditions: 8-12 grams four times daily, NSAID stopped
Protocol: An 8 year old quarter horse diagnosed with right dorsal colitis by an equine veterinarian had been on high doses of bananime, a non-steroidal anti-inflammatory (NSAID) pain reliever. Right dorsal colitis is known to be caused by ulcerations within the colon of the horse. Treatment was initiated by cessation of the NSAID and administration of 8-12 grams sucralfate four times daily. […] Oral administration to the horse of 30 ml of an immuno-modulating polygalacturonic-rhamnose suspension every 8 hours led to an improvement in attitude and appetite within 24 hours, a complete cessation of diarrhea in 36 hours, and the resumption of a regular diet in 72 hours.

[2] = tested on: gastroduodenal ulceration; assay: Case: equine ulcer colic in a foal (Example 24); format: in vivo; conditions: prior treatment
Excerpt: A 3 week old equine foal was diagnosed by a large animal veterinarian with gastroduodenal ulceration following 3 days of poor appetite. […] The foal resumed normal diet and activity by day 4 of treatment.

[3] = tested on: patient with functional dyspepsia; assay: Case: patient with functional dyspepsia (Example 14); format: in vivo, human; conditions: post-prandial early satiety, bloating, indigestion
Excerpt: A person diagnosed with functional dyspepsia according to the Rome II criteria suffered from post-prandial early satiety, bloating, and stomach indigestion. […] Initially, there was only a lessening of post-prandial indigestion.

CNC(=C[N+](=O)[O-])NCCSCc1ccc(CN(C)C)o1 [H2B Ranitidine, ranitidine]
Complete Relief, number of patients [1]: 3 | Complete Relief, percent of patients [1]: 30% | Complete Healing, number of patients [1]: 0 (0%) | Complete Healing, percent of patients [1]: 0 (0%) | Complete Healing, percent of patients ([1]; listed as ranitidine): 0%

sucralfate
Course of right dorsal colitis under treatment (right dorsal colitis): worsened after 2 days | Effect on symptoms [2]: failed to alleviate the symptoms | Effect on symptoms of functional dyspepsia [3]: failed to improve their symptoms

COc1ccc2[nH]c([S+]([O-])Cc3ncc(C)c(OC)c3C)nc2c1 (centres unmarked) [Omeprazole, omeprazole]
Complete Relief, number of patients [1]: 4 | Complete Relief, percent of patients [1]: 40% | Complete Healing, number of patients [1]: 3 | Complete Healing, percent of patients [1]: 30%

COCCCOc1ccnc(C[S+]([O-])c2nc3ccccc3[nH]2)c1C (centres unmarked) [raberazole]
Effect on symptoms of functional dyspepsia [3]: failed to improve their symptoms

COc1ccc2nc([S@@+]([O-])Cc3ncc(C)c(OC)c3C)[nH]c2c1 [esomeprazole]
Effect on symptoms of functional dyspepsia [3]: failed to improve their symptoms
